Measurements: patent publication US4618598A, “Method of regulating hormone function or release” (Duke University, priority 1982, dated 1986)
Values belong to the molecule of their own block, whether it stands above or below them.

How the values were obtained:
pituitary cell cultures [1] = details: for effect on conjugate-stimulated LH release: Example 4, 2 mM EGTA (1.25 mM extracellular calcium), five micromolar Pimozide; for effect on LH release stimulated by dimer plus antibody: Example 7, 5 μM Pimozide or 2 mM EGTA, all titers, 1.5×10^-11 M dimer
Experimental: (§1) Luteinizing hormone release from pituitary cell cultures is dependent upon the binding of the gonadotropin releasing hormone to its specific cell surface receptor. […] In FIG. 2 the antagonist activity of GnRH-Ant was measured in a cell culture bioassay. Two day pituitary cell cultures were incubated with 10^-8 M, 10^-9 M, or no GnRH at the indicated concentration of antagonist. After the 5 h incubation period, the medium was assayed for LH by RIA using rat LH antisera (LHS-4), highly purified rat LH for labeling (LH I-4), and rat LH standard (LH-RP-1) which were made available by a grant from the NIAMDD Hormone Distribution Office (prepared by Dr. A. Parlow, Torrance, CA.). The assay was performed as described below, except that second antibody was used to separate the bound and free [^ 125 -I]-LH.
Cell cultures were prepared, by collagenase-hyaluronidase dispersion of pituitaries from 25-day-old female weanling rats. The cultures were then incubated for 2 days at 37 C. in culture plates. […] After the culture period, the cells were washed free of debris and sera with medium 199 containing 0.3% bovine serum albumin (Cohn fraction V; 199/BSA) and incubated with the indicated compounds. Medium 199 normally contains 1 mM Ca^2+. Cells were incubated in 1.0 ml medium for 3 h. After the incubation period, the supernatant fraction was removed from the cells (attached to the culture dish) with a Pasteur pipette and assayed for LH by RIA employing rat LH antisera (LHS-5), highly purified rat LH for labeling (LH-I-6), and rat LH standard (LH-RP-1), all of which were made available by the NIAMMD Hormone Distribution Office and were prepared by Dr. A. Parlow (Torrance, CA). The assay was performed, using immobile protein A to separate the bound and free [^125 I]LH. […] LH release was normalized by DNA determination in order to correct for slight differences in cell numbers in different assay wells.
Rabbit anti-D-Lys^6 -GnRH (antiserum No. 5111 prepared by immunization with D-Lys^6 coupled to bovine serum albumin (BSA) with glutaraldehyde) was added without additional purification in an amount sufficient to bind 8-10% of the dimer. The antibody was added in a final volume of 50 μl (with Medium 199 containing 0.3% BSA and 2 mg NaN3). The reaction ws allowed to proceed 10 h at room temperature and then 2 days at 10° C. Immediately before the cell bioassay, the solution was applied to a 12 ml calibrated G-75 column (10×260 mm) equilibrated in 199/BSA. Twenty drop fractions (about 300 μl) were collected and brought to 1.0 ml with 199/BSA. […] Where monovalent antibody is specified, the reduced pepsin fragment of antibody (No. 5111) was substituted for intact antibody in the conjugation described above. In this case ammonium sulfate fractionated IgG was dissolved in 50 mM acetate buffer, pH 4.5 and digested with pepsin (Worthington Biochemical Corp.) at an enzyme:substrate ratio of 1:100 for 50 min at […]. Digestion was stopped by neutralization with 1M Tris-HCL, pH 8.0 and 0.1N NaOH. Precipitated material was removed by centrifugation and 2-mercaptoethanol added to the supernatant at a final concentration of 0.75 mM. The solution was maintained at room temperature for 1 h, then cooled in ice cold water.

[2] = molecular target: T1, gonadotropin releasing hormone receptor (Rattus norvegicus, UniProt P30969); test: Competitive binding against [125-I] Buserelin on pituitary plasma membrane fraction
T1 construct: gonadotropin releasing hormone sites on a plasma membrane fraction from the rat pituitary; from tissue; host or cells: rat pituitary plasma membrane fraction
T1 sequence (P30969 1-327): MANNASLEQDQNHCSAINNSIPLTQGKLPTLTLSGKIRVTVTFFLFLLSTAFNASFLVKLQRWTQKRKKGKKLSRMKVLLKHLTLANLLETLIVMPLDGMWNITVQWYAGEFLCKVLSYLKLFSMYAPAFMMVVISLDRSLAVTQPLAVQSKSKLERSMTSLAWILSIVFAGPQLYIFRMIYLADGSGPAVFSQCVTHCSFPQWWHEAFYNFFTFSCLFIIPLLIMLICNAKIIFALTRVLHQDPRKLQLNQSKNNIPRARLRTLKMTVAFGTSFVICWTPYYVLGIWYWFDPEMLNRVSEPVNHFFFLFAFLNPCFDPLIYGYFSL
Excerpt: [125-I]-Tyr^5 -D-ser(tert-butyl)^6 -desGly^10 -Pro^9 ethylamid-GnRH ([125-I] Buserelin, Hoechst Pharmaceuticals) binds to the gonadotropin releasing hormone receptor sites on the plasma membrane. The ability to compete with the iodine labelled Buserelin indicates the relative affinity for the receptor. […] The data are expressed in terms of equivalents of releasing hormone analogue showing the radioligand bound in the presence of the indicated analogue concentration (B) compared to that bound in the absence of added analog (Bo).
The binding assay was conducted in polypropylene microfuge tubes which were precoated overnight with 1% BSA. The assay contained approximately 20,000 cpm of ^125 I-labeled Buserelin and 30 μg of membrane protein, in the presence or absence of 10^-5 M GnRH. In some competition experiments, the amount of added GnRH was altered as indicated. To determine the specificity of binding, des-pGlu^1 -GnRH (Bachem, Torrance, Calif.), D-Ala^6 -GnRH (Peninsula Laboratories, Inc., San Carlos, Calif.), D-Phe^2 -D-Ala^6 -GnRH (Wyeth Laboratories, Philadelphia, Pa.) TRH (Peninsula Laboratories), arg^8 -vasopressin (Calbiochem, San Diego, Calif.), or somatostatin (Beckman Instruments, Fullerton, Calif.) were added at the indicated concentrations. The final assay volume was 500 μl adjusted with 10 mM Tris-0.1% BSA. Following a 2-hr incubation on ice, bound and free hormone were separated by centrifugation. (Eppendorf microfuge, 12,800×g, 5 min) through 100 μl of 10% (w/v) sucrose. The tips of the tubes were cut off and radioactivity was determined by γ-spectroscopy. […] For some kinetic studies, bound hormone and free hormone were separated by the method of rapid filtration. Incubations were performed in triplicate. Specific binding was determined by subtracting nonspecific binding (in the presence of excess unlabeled GnRH) from total binding (no GnRH). Scatchard analysis of the binding data, using linear regression analysis to establish best-line fit, was used to determine the number and binding affinity of GnRH receptors. […]

pituitary cell cultures [3] = test: Inhibition of GnRH-stimulated LH release from pituitary cell cultures (antagonist function); format: cell-based, rat
Experimental: as §1, with “FIG. 2 illustrates the ability of the gonadotropin releasing hormone antagonist to inhibit gonadotropin releasing hormone-stimulated LH release from pituitary cell cultures. Luteinizing” for “Luteinizing”, “receptor. The GnRH-antagonist binds to this receptor and blocks stimulation by GnRH.” for “receptor.”
Cell cultures were prepared, by collagenase-hyaluronidase dispersion of pituitaries from 25-day-old female weanling rats. The cultures were then incubated for 2 days at 37 C. in culture plates. […]

Molecule: CC(C)C[C@H](NC(=O)[C@@H](CCCCNC(=O)CCC(=O)OCCOC(=O)CCC(=O)NCCCC[C@@H](NC(=O)[C@H](Cc1ccc(O)cc1)NC(=O)[C@H](CO)NC(=O)[C@H](Cc1c[nH]c2ccccc12)NC(=O)[C@H](Cc1c[nH]cn1)NC(=O)[C@@H]1CCC(=O)N1)C(=O)N[C@@H](CC(C)C)C(=O)N[C@@H](CCCNC(=N)N)C(=O)N1CCC[C@H]1C(=O)NCC(N)=O)NC(=O)[C@H](Cc1ccc(O)cc1)NC(=O)[C@H](CO)NC(=O)[C@H](Cc1c[nH]c2ccccc12)NC(=O)[C@H](Cc1c[nH]cn1)NC(=O)[C@@H]1CCC(=O)N1)C(=O)N[C@@H](CCCNC(=N)N)C(=O)N1CCC[C@H]1C(=O)NCC(N)=O [(D-Lys^6 -GnRH)2 -EGS dimer]
ED50 of LH release (pituitary cell cultures [1]): 0.8 nM

Molecule: CCNC(=O)[C@@H]1CCCN1C(=O)[C@H](CCCNC(=N)N)NC(=O)[C@H](CC(C)C)NC(=O)[C@@H](COC(C)(C)C)NC(=O)[C@H](Cc1ccc(O)cc1)NC(=O)[C@H](CO)NC(=O)[C@H](Cc1c[nH]c2ccccc12)NC(=O)[C@H](Cc1cnc[nH]1)NC(=O)[C@@H]1CCC(=O)N1 [Buserelin]
IC50 [2]: ~0.1 nM

Molecule: CC(C)C[C@H](NC(=O)[C@@H](CCCCN)NC(=O)[C@H](Cc1ccc(O)cc1)NC(=O)[C@H](CO)NC(=O)[C@H](Cc1c[nH]c2ccccc12)NC(=O)[C@H](Cc1c[nH]cn1)NC(=O)[C@@H]1CCC(=O)N1)C(=O)N[C@@H](CCCNC(=N)N)C(=O)N1CCC[C@H]1C(=O)NCC(N)=O [D-Lys^6 -GnRH, pyro glutamic acid-histidine-tryptophan-serine-tyrosine-D-lysine-leucine-arginine-proline-glycine-NH2]
stimulated LH release (pituitary cell cultures [1]; Example 7, 10^-7 M): 58±6 ng/100 ng DNA

Molecule: O=C(O)CN(CCOCCOCCN(CC(=O)O)CC(=O)O)CC(=O)O [EGTA]
effect on conjugate-stimulated LH release (pituitary cell cultures [1]): blocked
effect on LH release stimulated by dimer plus antibody (pituitary cell cultures [1]): diminished LH release to near basal

Molecule: O=c1[nH]c2ccccc2n1C1CCN(CCCC(c2ccc(F)cc2)c2ccc(F)cc2)CC1 [Pimozide]
effect on conjugate-stimulated LH release (pituitary cell cultures [1]): blocked
effect on LH release stimulated by dimer plus antibody (pituitary cell cultures [1]): diminished LH release to near basal

IC50 (pituitary cell cultures [3]; GnRH-stimulated (10^-9 molar), pituitary cultures, read-out: 50% inhibitory concentration (IC50) of GnRH-stimulated gonadotropin release): 0.2 nM
binding affinity relative to natural sequence gonadotropin releasing hormone ([2]; printed as less affinity than natural GnRH, in equivalents of monomeric hormone): about 50 fold
Molecule: D-pyroglumatic acid-D-phenylalanyl-D-tryptophanyl-D-lysyl-GnRH [GnRH-antagonist]
antagonist action on GnRH-stimulated LH release (pituitary cell cultures [3]): blocks the action of both 10^-8 molar and 10^-9 molar GnRH
binding affinity compared with natural GnRH [2]: higher affinity than natural sequence releasing hormone

Molecule: GnRH: natural sequence gonadotropin releasing hormone (QHWSYGLRPG; Gonadoliberin-1; UniProt P01148 24-33, looked up)
LH release in response to GnRH (pituitary cell cultures [1]; Example 4, 10^-7 moles GnRH, five hour period): 13.6±0.9 ng LH/20 μL of medium
concentration at which maximum LH release is reached (pituitary cell cultures [1]; FIG. 6): 10^-7 molar
